Assay results published in US10450311B2, “Pesticidally active heterocyclic derivatives with sulphur containing substituents” (Syngenta Participations AG, priority 2014, dated 2019).

Assays:
Type in all cases: in vivo
[1] = system: Euschistus heros (Neotropical Brown Stink Bug); experiment: Activity against Euschistus heros, sprayed soybean leaf; details: 120 h, application rate of 200 ppm, N-2 nymphs on soybean leaf, 5 days after infestation
Description: Example B3: Activity Against Euschistus heros (Neotropical Brown Stink Bug)
Soybean leaf on agar in 24-well microtiter plates were sprayed with aqueous test solutions prepared from 10′000 ppm DMSO stock solutions. After drying the leaf were infested with N-2 nymphs. The samples were assessed for mortality 5 days after infestation.

[2] = system: Myzus persicae (Green Peach Aphid); experiment: Activity against Myzus persicae, sprayed sunflower leaf discs; details: foliar, 144 h, application rate of 200 ppm, aphid population of mixed ages on sunflower leaf discs, 6 days after infestation
Description: Example B5: Activity Against Myzus persicae (Green Peach Aphid)
Sunflower leaf discs were placed on agar in a 24-well microtiter plate and sprayed with aqueous test solutions prepared from 10′000 ppm DMSO stock solutions. After drying, the leaf discs were infested with an aphid population of mixed ages. The samples were assessed for mortality 6 days after infestation.

[3] = system: Tetranychus urticae (Two-Spotted Spider Mite); experiment: Activity against Tetranychus urticae, feeding/contact activity; details: foliar, 192 h
Description: Example B12: Activity Against Tetranychus urticae (Two-Spotted Spider Mite): Feeding/Contact Activity
Bean leaf discs on agar in 24-well microtiter plates were sprayed with aqueous test solutions prepared from 10′000 ppm DMSO stock solutions. After drying the leaf discs were infested with a mite population of mixed ages. The samples were assessed for mortality on mixed population (mobile stages) 8 days after infestation.

[4] = system: Bemisia tabaci (Cotton White Fly); experiment: Activity against Bemisia tabaci, sprayed cotton leaf discs; details: foliar, 144 h, application rate of 200 ppm, adult white flies on cotton leaf discs, 6 days after incubation
Description: Example B1: Activity Against Bemisia tabaci (Cotton White Fly)
Cotton leaf discs were placed on agar in 24-well microtiter plates and sprayed with aqueous test solutions prepared from 10′000 ppm DMSO stock solutions. After drying the leaf discs were infested with adult white flies. The samples were checked for mortality 6 days after incubation. […] A35, A36 and A47. A1. A2, A3, A8, A10, A14 and A12.

[5] = system: Myzus persicae (Green Peach Aphid); experiment: Activity against Myzus persicae, sucrose solution under Parafilm; details: 120 h, test rate of 12 ppm, mixed with sucrose solution, 5 days after infestation
Excerpt: Example B7: Activity Against Myzus persicae (Green Peach Aphid)
Test compounds from 10′000 ppm DMSO stock solutions were applied by pipette into 24-well microtiter plates and mixed with sucrose solution. The plates were closed with a stretched Parafilm. A plastic stencil with 24 holes was placed onto the plate and infested pea seedlings were placed directly on the Parafilm. The infested plate was closed with a gel blotting paper and another plastic stencil and then turned upside down. The samples were assessed for mortality 5 days after infestation. […] A30 and A32.

[6] = system: Spodoptera littoralis (Egyptian Cotton Leaf Worm); experiment: Activity against Spodoptera littoralis, systemic activity; details: 144 h, test rate of 12.5 ppm, in agar, lettuce root uptake, 6 days after infestation
Excerpt: Example B11: Activity Against Spodoptera littoralis (Egyptian Cotton Leaf Worm), Systemic Activity
(§1) Test compounds were applied by pipette from 10′000 ppm DMSO stock solutions into 24-well plates and mixed with agar. Lettuce seeds were placed on the agar and the multi well plate was closed by another plate which contains also agar. After 7 days the roots have absorbed the compound and the lettuce has grown into the lid plate. The lettuce leafs were now cut off into the lid plate. Spodoptera eggs were pipetted through a plastic stencil on a humid gel blotting paper and the plate closed with it. The samples were assessed for mortality 6 days after infestation.

[7] = system: Plutella xylostella (Diamond Back Moth); experiment: Activity against Plutella xylostella, treated artificial diet; details: 120 h, application rate of 200 ppm, L2 larvae on artificial diet, 5 days after infestation, read-out: effect in at least one of the two categories (mortality or growth inhibition)
Description: Example B8: Activity Against Plutella xylostella (Diamond Back Moth)
24-well microtiter plates with artificial diet were treated with aqueous test solutions prepared from 10′000 ppm DMSO stock solutions by pipetting. After drying, the plates were infested with L2 larvae (10 to 15 per well). The samples were assessed for mortality and growth inhibition in comparison to untreated samples 5 days after infestation.

[8] = system: Thrips tabaci (Onion Thrips); experiment: Activity against Thrips tabaci, feeding/contact activity; details: foliar, 144 h, application rate of 200 ppm, thrips population of mixed ages on sunflower leaf discs, 6 days after infestation
Description: Example B13: Activity Against Thrips tabaci (Onion Thrips) Feeding/Contact Activity
Sunflower leaf discs were placed on agar in 24-well microtiter plates and sprayed with aqueous test solutions prepared from 10′000 ppm DMSO stock solutions. After drying the leaf discs were infested with a thrips population of mixed ages. The samples were assessed for mortality 6 days after infestation.

[9] = system: Frankliniella occidentalis (Western Flower Thrips); experiment: Activity against Frankliniella occidentalis, sprayed sunflower leaf discs; details: foliar, 168 h, application rate of 200 ppm, population of mixed ages on sunflower leaf discs, 7 days after infestation
Description: Example B4: Activity Against Frankliniella occidentalis (Western Flower Thrips)
Sunflower leaf discs were placed on agar in 24-well microtiter plates and sprayed with aqueous test solutions prepared from […] stock solutions. After drying the leaf discs were infested with a Frankliniella population of mixed ages. The samples were assessed for mortality 7 days after infestation.

[10] = system: Spodoptera littoralis (Egyptian Cotton Leaf Worm); experiment: Activity against Spodoptera littoralis, compound in agar taken up by lettuce; details: 144 h, test rate of 12.5 ppm, lettuce root uptake, 6 days after infestation, read-out: effect in at least one of the three categories (mortality, anti-feedancy, or growth inhibition)
Excerpt: Example B10: Activity Against Spodoptera littoralis (Egyptian Cotton Leaf Worm)
as §1, with “mortality, anti-feedant effect and growth inhibition in comparison to untreated samples” for “mortality”

[11] = system: Aedes aegypti (Yellow Fever Mosquito); experiment: whole plant or invertebrate; details: 48 h, test rate of 5 ppm, L2 larvae in 96-well plates, incubation period of 2 days, read-out: effect in at least one of the two categories (mortality or growth inhibition)
Description: Example B14: Activity Against Aedes aegypti (Yellow Fever Mosquito)
10 to 15 Aedes larvae (L2) together with a nutrition mixture were placed in 96-well microtiter plates. Test compounds were pipetted into the wells. After an incubation period of 2 days insects were assessed for mortality and growth inhibition.

[12] = system: Diabrotica balteata (Corn Root Worm); experiment: Activity against Diabrotica balteata, sprayed maize sprouts; details: 96 h, application rate of 200 ppm, larvae on maize sprouts, 4 days after infestation
Description: Example B2: Activity Against Diabrotica balteata (Corn Root Worm)
Maize sprouts, placed on an agar layer in 24-well microtiter plates were treated with aqueous test solutions prepared from 10′000 ppm DMSO stock solutions by spraying. After drying, the plates were infested with […] (6 to 10 per well). The samples were assessed for mortality 4 days after infestation.

[13] = system: Myzus persicae (Green Peach Aphid); experiment: Activity against Myzus persicae, roots of infested pea seedlings in test solution; details: 144 h, test rate of 24 ppm, 6 days
Description: Example B6: Activity Against Myzus persicae (Green Peach Aphid)
Roots of pea seedlings infested with an aphid population of mixed ages were placed directly in the aqueous test solutions prepared from 10′000 DMSO stock solutions. The samples were assessed for mortality 6 days after placing seedlings in test solutions.

[14] = system: Spodoptera littoralis (Egyptian Cotton Leaf Worm); experiment: Activity against Spodoptera littoralis, sprayed cotton leaf discs; details: foliar, 72 h, application rate of 200 ppm, L1 larvae on cotton leaf discs, 3 days after infestation, read-out: control (at least one of mortality, anti-feedant effect, growth inhibition)
Description: Example B9: Activity Against Spodoptera littoralis (Egyptian Cotton Leaf Worm)
Cotton leaf discs were placed on agar in 24-well microtiter plates and sprayed with aqueous test solutions prepared from 10′000 ppm DMSO stock solutions. After drying the leaf discs were infested with five L1 larvae. The samples were assessed for mortality, anti-feedant effect, and growth inhibition in comparison to untreated samples 3 days after infestation. Control of Spodoptera littoralis by a test sample is when at least one of mortality, anti-feedant effect, and growth inhibition is higher than the untreated sample.

CCSc1cc(Br)cnc1-c1nc2cc(C(F)(F)F)n(C)c(=O)c2n1C [Compound A20, 2-(5-bromo-3-ethylsulfanyl-2-pyridyl)-3,5-dimethyl-6-(trifluoromethyl)imidazo[4,5-c]pyridin-4-one]
≥ 80%: mortality at 200 ppm [1] | mortality at 200 ppm [2] | mortality at 200 ppm [3]

CCS(=O)(=O)c1cc(C(F)(F)F)cnc1-c1nc2cc(C(F)(F)F)n(C)c(=O)c2n1C [Compound A1, 2-[3-ethylsulfonyl-5-(trifluoromethyl)-2-pyridyl]-3,5-dimethyl-6-(trifluoromethyl)imidazo[4,5-c]pyridin-4-one]
≥ 80%: mortality at 200 ppm [1] | mortality at 200 ppm [2] | mortality at 200 ppm [4] | mortality at 12 ppm [5] | mortality at 12.5 ppm [6] | percent effect (mortality or growth inhibition) at 200 ppm [7] | mortality at 200 ppm [8] | mortality at 200 ppm [9] | percent control (mortality, anti-feedancy or growth inhibition) at 12.5 ppm [10] | percent effect (mortality or growth inhibition) at 5 ppm [11] | mortality at 200 ppm [12] | mortality at 24 ppm [13] | percent control (mortality, anti-feedant effect or growth inhibition) at 200 ppm [14]

CCS(=O)(=O)c1cc(C(F)(F)C(F)(F)F)cnc1-c1nc2cc(C(F)(F)F)n(C)c(=O)c2n1C [Compound A46, 2-[3-ethylsulfonyl-5-(1,1,2,2,2-pentafluoroethyl)-2-pyridyl]-3,5-dimethyl-6-(trifluoromethyl)imidazo[4,5-c]pyridin-4-one]
≥ 80%: mortality at 200 ppm [1] | mortality at 200 ppm [2] | mortality at 12.5 ppm [6] | percent effect (mortality or growth inhibition) at 200 ppm [7] | mortality at 200 ppm [8] | mortality at 200 ppm [9] | percent control (mortality, anti-feedancy or growth inhibition) at 12.5 ppm [10] | percent effect (mortality or growth inhibition) at 5 ppm [11] | mortality at 200 ppm [12] | percent control (mortality, anti-feedant effect or growth inhibition) at 200 ppm [14]
